Several values for one entry are separate records, joined by “and”; a condition that tells them apart may be missing. Equal entries are not always repeated. Inconclusive results and toxic doses are left out.
System: P388 leukemia ip, CD2F1 mice, survival T/C
Experiment: NCI In Vivo Anticancer Drug Screen. Data for tumor model P388 Leukemia (intraperitoneal) in CD2F1 (CDF1) mice
Conditions: endpoint: median survival time, higher = longer survival
Procedure, shortened: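 Mice carrying the transplanted tumor received test compound or vehicle. Survival was recorded in each group, and the value is the treated-group measurement divided by that of the vehicle-treated control group.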

[1] = dose: 60.0 mg/kg/injection, schedule: Q01DX005 (ip), vehicle: Klucel (hydroxypropylcellulose) (HPC)
[2] = dose: 120.0 mg/kg/injection, schedule: Q01DX005 (ip), vehicle: Klucel (hydroxypropylcellulose) (HPC)
[3] = dose: 240.0 mg/kg/injection, schedule: Q01DX005 (ip), vehicle: Klucel (hydroxypropylcellulose) (HPC)
[4] = dose: 50.0 mg/kg/injection, schedule: Q01DX005 (ip), vehicle: saline with Tween-80
[5] = dose: 100.0 mg/kg/injection, schedule: Q01DX005 (ip), vehicle: saline with Tween-80
[6] = dose: 200.0 mg/kg/injection, schedule: Q01DX005 (ip), vehicle: saline with Tween-80
[7] = dose: 60.0 mg/kg/injection, schedule: Q01DX005 (ip), vehicle: saline with Tween-80
[8] = dose: 120.0 mg/kg/injection, schedule: Q01DX005 (ip), vehicle: saline with Tween-80
[9] = dose: 240.0 mg/kg/injection, schedule: Q01DX005 (ip), vehicle: saline with Tween-80
[10] = dose: 3.13 mg/kg/injection, schedule: Q01DX009 (ip), vehicle: saline with Tween-80
[11] = dose: 6.25 mg/kg/injection, schedule: Q01DX009 (ip), vehicle: saline with Tween-80
[12] = dose: 100.0 mg/kg/injection, schedule: Q01DX009 (ip), vehicle: other
[13] = dose: 200.0 mg/kg/injection, schedule: Q01DX009 (ip), vehicle: other

With `FC(F)(F)c1nc(SCc2ccc(Cl)cc2)n[nH]1` the T/C (dose: 30.0 mg/kg/injection, schedule: Q01DX005 (ip), vehicle: Klucel (hydroxypropylcellulose) (HPC)) was 103 % of control, the T/C [1] was 96 % of control and the T/C [2] was 98 % of control. For the same compound, the T/C [3] was 102 % of control.
With `CC(C)N1CCN(c2ccncc2S(=O)(=O)N2CCCCC2)CC1` the T/C (dose: 50.0 mg/kg/injection, schedule: Q01DX009 (ip), vehicle: saline) was 89 % of control, the T/C (dose: 100.0 mg/kg/injection, schedule: Q01DX009 (ip), vehicle: saline) was 96 % of control and the T/C (dose: 200.0 mg/kg/injection, schedule: Q01DX009 (ip), vehicle: saline) was 90 % of control.
For `O=C1CN(C(=O)Nc2ccccc2)c2ccccc2N1`, the T/C [4] was 92 % of control, the T/C [5] was 93 % of control and the T/C [6] was 90 % of control.
`O=C(/N=C1\N=Nc2c(O)c(C3(c4nc5n(c4O)/C(=N/C(=O)Nc4ccc(Cl)cc4)N=N5)Cc4ccccc4C3=O)nn21)Nc1ccc(Cl)cc1` (stereo unspecified) was tested, and the T/C [7] was 101 % of control, the T/C [8] was 94 % of control and the T/C [9] was 94 % of control.
For `CCN1CCCC(OC(=O)c2cccc3[nH]ccc23)C1` (stereo unspecified), the T/C [10] was 118 % of control, the T/C [11] was 103 % of control and the T/C (dose: 12.5 mg/kg/injection, schedule: Q01DX009 (ip), vehicle: saline with Tween-80) was 98 % of control. For the same compound, the T/C (dose: 25.0 mg/kg/injection, schedule: Q01DX009 (ip), vehicle: saline with Tween-80) was 99 % of control.
For `CN(C)CCOCN1COCC1(C)C`, the T/C (dose: 25.0 mg/kg/injection, schedule: Q01DX009 (ip), vehicle: saline) was 123 % of control.
In the case of `COc1ccc(C(c2cc3c(cc2O)OCO3)N2CCCCC2)cc1OC` (stereo unspecified), the T/C [7] is reported as 107 % of control, the T/C [8] is reported as 110 % of control and the T/C [9] is reported as 120 % of control.
For `C1SSCC2=C1CSSC2`, the T/C [7] was 100 % of control, the T/C [8] was 100 % of control and the T/C [9] was 107 % of control.
`N#Cc1c(N)nc(-c2ccccc2)nc1Nc1ccccc1` was tested, and the T/C [7] was 90 % of control, the T/C [8] was 104 % of control and the T/C [9] was 99 % of control.
For `O=[N+]([O-])c1c(Cl)cc(Cl)c(-c2c(Cl)cc(Cl)c([N+](=O)[O-])c2Cl)c1Cl`, the T/C (dose: 25.0 mg/kg/injection, schedule: Q01DX009 (ip), vehicle: other) was 102 % of control, the T/C (dose: 50.0 mg/kg/injection, schedule: Q01DX009 (ip), vehicle: other) was 106 % of control and the T/C [12] was 107 % of control. For the same compound, the T/C [13] was 106 % of control and the T/C (dose: 400.0 mg/kg/injection, schedule: Q01DX009 (ip), vehicle: other) was 105 % of control.
With `CN(C/C(=N/O)c1ccccc1)C(=O)c1ccccc1` the T/C (dose: 50.0 mg/kg/injection, schedule: Q01DX005 (ip), vehicle: saline) was 98 % of control, the T/C (dose: 100.0 mg/kg/injection, schedule: Q01DX005 (ip), vehicle: saline) was 100 % of control and the T/C (dose: 200.0 mg/kg/injection, schedule: Q01DX005 (ip), vehicle: saline) was 97 % of control.
With `CSc1ncnc2c1ncn2C(SC)C(OC(C)=O)C(OC(C)=O)C(OC(C)=O)C(COC(C)=O)OC(C)=O` (stereo unspecified) the T/C [4] was 96 % of control, the T/C [5] was 97 % of control and the T/C [6] was 102 % of control.
`NC/C(=N\O)c1ccc2ccccc2c1` was tested, and the T/C [1] was 100 % of control, the T/C [2] was 110 % of control and the T/C [3] was 105 % of control.
`CNc1nc(-c2ccc(C(C)(C)C)cc2)c(-c2ccc(C(C)(C)C)cc2)[nH]1` was tested, and the T/C (dose: 25.0 mg/kg/injection, schedule: Q04DX002 (ip), vehicle: saline with Tween-80) was 117 % of control and 96 % of control and the T/C (dose: 50.0 mg/kg/injection, schedule: Q04DX002 (ip), vehicle: saline with Tween-80) was 107 % of control and 121 % of control.
With `Cn1c(=NCCc2ccccc2)oc2ccc(Cl)cc21` the T/C [4] was 103 % of control, the T/C [5] was 100 % of control and the T/C [6] was 100 % of control.
For `CC(=O)NC(C=O)OCC=O` (stereo unspecified), the T/C (dose: 44.0 mg/kg/injection, schedule: Q01DX005 (ip), vehicle: water) was 120 % of control, the T/C (dose: 66.0 mg/kg/injection, schedule: Q01DX005 (ip), vehicle: water) was 121 % of control and the T/C (dose: 150.0 mg/kg/injection, schedule: Q01DX005 (ip), vehicle: water) was 110 % of control.
For `N#CCCn1nnc2ccccc21`, the T/C (dose: 6.25 mg/kg/injection, schedule: Q01DX009 (ip), vehicle: Klucel (hydroxypropylcellulose) (HPC)) was 91 % of control, the T/C (dose: 12.5 mg/kg/injection, schedule: Q01DX009 (ip), vehicle: Klucel (hydroxypropylcellulose) (HPC)) was 94 % of control and the T/C (dose: 25.0 mg/kg/injection, schedule: Q01DX009 (ip), vehicle: Klucel (hydroxypropylcellulose) (HPC)) was 95 % of control. The T/C (dose: 50.0 mg/kg/injection, schedule: Q01DX009 (ip), vehicle: Klucel (hydroxypropylcellulose) (HPC)) was 88 % of control.
For `Clc1ccccc1C=Nc1ccccc1`, the T/C (dose: 50.0 mg/kg/injection, schedule: Q01DX009 (ip), vehicle: saline with Tween-80) was 121 % of control.
In the case of `Cc1ccc(-c2nc3c(C)nc(-c4ccccc4)nc3n2Nc2ccccc2)cc1`, the T/C [4] is reported as 94 % of control, the T/C [5] is reported as 90 % of control and the T/C [6] is reported as 91 % of control.
In the case of `CCc1cc2c(c3c1C(=O)CC3)C(C)(C)CCC2`, the T/C (dose: 50.0 mg/kg/injection, schedule: Q01DX005 (ip), vehicle: saline + Tween-80 + alcohol) is reported as 106 % of control, the T/C (dose: 100.0 mg/kg/injection, schedule: Q01DX005 (ip), vehicle: saline + Tween-80 + alcohol) is reported as 92 % of control and the T/C (dose: 200.0 mg/kg/injection, schedule: Q01DX005 (ip), vehicle: saline + Tween-80 + alcohol) is reported as 97 % of control.
With `O=NN(CCCl)C(=O)NC1CCC(=O)NC1=O` (stereo unspecified) the T/C (dose: 0.5 mg/kg/injection, schedule: Q04DX003 (ip), vehicle: saline) was 122 % of control, the T/C (dose: 1.0 mg/kg/injection, schedule: Q04DX003 (ip), vehicle: saline) was 154 % of control and the T/C (dose: 2.0 mg/kg/injection, schedule: Q01DX005 (ip), vehicle: saline + alcohol) was 214 % of control. The T/C (dose: 2.0 mg/kg/injection, schedule: Q01DX005 (iv), vehicle: saline + alcohol) was 117 % of control, the T/C (dose: 2.0 mg/kg/injection, schedule: Q04DX003 (ip), vehicle: saline) was 195 % of control and the T/C [10] was 118 % of control. For the same compound, the T/C (dose: 4.0 mg/kg/injection, schedule: Q01DX001 (ip), vehicle: saline + alcohol) was 172 % of control, the T/C (dose: 4.0 mg/kg/injection, schedule: Q01DX005 (ip), vehicle: saline + alcohol) was 315 % of control and the T/C (dose: 4.0 mg/kg/injection, schedule: Q01DX005 (iv), vehicle: saline + alcohol) was 205 % of control. The T/C (dose: 4.0 mg/kg/injection, schedule: Q01DX005 (oral), vehicle: saline + alcohol) was 207 % of control, the T/C (dose: 4.0 mg/kg/injection, schedule: Q04DX003 (ip), vehicle: saline with Tween-80) was 272 % of control and the T/C (dose: 4.0 mg/kg/injection, schedule: Q04DX003 (ip), vehicle: saline) was 263 % of control. The T/C (dose: 6.0 mg/kg/injection, schedule: Q04DX003 (ip), vehicle: saline with Tween-80) was 272 % of control, the T/C [11] was 109 % of control and the T/C (dose: 8.0 mg/kg/injection, schedule: Q01DX001 (ip), vehicle: saline + alcohol) was 232 % of control. The T/C (dose: 8.0 mg/kg/injection, schedule: Q01DX001 (iv), vehicle: saline + alcohol) was 158 % of control, the T/C (dose: 8.0 mg/kg/injection, schedule: Q01DX005 (iv), vehicle: saline + alcohol) was 252 % of control and the T/C (dose: 8.0 mg/kg/injection, schedule: Q01DX005 (oral), vehicle: saline + alcohol) was 315 % of control. The T/C (dose: 9.0 mg/kg/injection, schedule: Q04DX003 (ip), vehicle: saline with Tween-80) was 272 % of control, the T/C (dose: 12.5 mg/kg/injection, schedule: Q04DX003 (ip), vehicle: saline with Tween-80) was 87 % of control and the T/C (dose: 13.0 mg/kg/injection, schedule: Q01DX001 (ip), vehicle: saline with Tween-80) was 517 % of control. For the same compound, the T/C (dose: 16.0 mg/kg/injection, schedule: Q01DX001 (ip), vehicle: saline + alcohol) was 312 % of control, the T/C (dose: 16.0 mg/kg/injection, schedule: Q01DX001 (iv), vehicle: saline + alcohol) was 203 % of control and the T/C (dose: 16.0 mg/kg/injection, schedule: Q01DX001 (oral), vehicle: saline + alcohol) was 187 % of control. For the same compound, the T/C (dose: 16.0 mg/kg/injection, schedule: Q01DX005 (oral), vehicle: saline + alcohol) was 119 % of control.
With `COc1cc2c(cc1O)Cc1c-2[n+](C)cc2cc(OC)c(OC)cc12` the T/C (dose: 6.25 mg/kg/injection, schedule: Q01DX005 (ip), vehicle: Klucel (hydroxypropylcellulose) (HPC)) was 117 % of control, the T/C (dose: 12.5 mg/kg/injection, schedule: Q01DX005 (ip), vehicle: Klucel (hydroxypropylcellulose) (HPC)) was 109 % of control and the T/C (dose: 25.0 mg/kg/injection, schedule: Q01DX005 (ip), vehicle: Klucel (hydroxypropylcellulose) (HPC)) was 115 % of control. For the same compound, the T/C (dose: 100.0 mg/kg/injection, schedule: Q04DX002 (ip), vehicle: Klucel (hydroxypropylcellulose) (HPC)) was 119 % of control.
With `O=C(O)/C=N/NS(=O)(=O)Cc1ccccc1` the T/C [12] was 185 % of control and the T/C [13] was 154 % of control and 166 % of control.
